# Experimental data published in EP1076558B1, “2-PHENYL-1-[-(2-AMINOETHOXY)-BENZYL -INDOLE IN COMBINATION WITH ESTROGENS” (Wyeth, priority 1998, dated 1999).
# Where a name gives a salt, the structure may show the parent alone.
# Target: T1, estrogen receptor (Homo sapiens, UniProt P03372)
# T1 construct: expressed in transfected cells; host or cells: CHO cells (ribosome-free cytosol)
# T1 sequence (P03372 1-595): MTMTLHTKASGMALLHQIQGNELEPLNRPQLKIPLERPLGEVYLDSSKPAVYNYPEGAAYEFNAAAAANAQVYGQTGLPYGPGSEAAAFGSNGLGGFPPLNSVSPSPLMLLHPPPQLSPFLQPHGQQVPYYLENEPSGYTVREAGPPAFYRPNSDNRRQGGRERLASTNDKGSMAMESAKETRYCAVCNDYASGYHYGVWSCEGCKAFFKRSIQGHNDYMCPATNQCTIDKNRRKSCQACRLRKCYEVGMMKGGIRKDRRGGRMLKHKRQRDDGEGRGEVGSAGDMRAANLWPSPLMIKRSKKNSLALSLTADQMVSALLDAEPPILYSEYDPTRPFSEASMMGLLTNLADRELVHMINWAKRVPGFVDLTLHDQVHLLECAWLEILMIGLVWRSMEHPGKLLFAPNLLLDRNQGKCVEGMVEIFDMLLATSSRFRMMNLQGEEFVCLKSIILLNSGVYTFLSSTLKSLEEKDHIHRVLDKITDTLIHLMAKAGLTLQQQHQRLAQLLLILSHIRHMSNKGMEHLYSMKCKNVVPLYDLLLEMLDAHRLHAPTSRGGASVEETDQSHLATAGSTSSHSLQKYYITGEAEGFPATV
# Assay: In vitro estrogen receptor binding assay
# Settings: not given
# Method: CHO cells overexpressing the estrogen receptor were grown in 150 mm^2 dishes in DMEM + 10% dextran coated charcoal, stripped fetal bovine serum. The plates were washed twice with PBS and once with 10mM Tris-HCl, pH 7.4, 1mM EDTA. Cells were harvested by scraping the surface and then the cell suspension was placed on ice. Cells were disrupted with a hand-held motorized tissue grinder using two, 10-second bursts. […] The cytosol was then frozen and stored at -80°C. Protein concentration of the cytosol was estimated using the BCA assay with reference standard protein.
# 100uG/100uL of the receptor preparation was aliquoted per well. […] The plate was incubated at room temperature for 2.5 h. […] 200 uL of the supernatant solution was then removed for scintillation counting. Samples were counted to 2% or 10 minutes, whichever occurs first. […] Also, wells containing radioactivity but no cytosol were processed with charcoal to estimate unremovable DPM of [^3H]
# Counts per minute (CPM) of radioactivity were automatically converted to disintegrated per minute (DPM) by the Beckman LS 7500 Scintillation Counter using a set of quenched standards to generate a H No. for each sample.
# For the generation of IC50 curves, % binding is plotted vs compound. […] For a description of these methods, see Hulme, E.C., ed. […] Receptor-Ligand Interactions: A Practical Approach. IRL Press, New York.(see especially chapter 8).
row,SMILES,IC50 [nM]
1,"Cc1c(-c2ccc(O)cc2)n(Cc2ccc(OCCN(C(C)C)C(C)C)cc2)c2ccc(O)cc12 [Example No. 104, 1-[4-(2-Diisopropylamino-ethoxy)-benzyl]-2-(4-hydroxy-phenyl)-3-methyl-1H-indol-5-ol]",100

# Same assay, conditions: competition with [3H]17β-estradiol; cytosol of CHO cells overexpressing the estrogen receptor; read-out: Receptor Binding IC50's
row,IC50 [nM],SMILES
1,28,CCCCN(C)CCOc1ccc(Cn2c(-c3ccc(O)cc3)c(C)c3cc(O)ccc32)cc1 [Example No. 105]
2,100,"Cc1c(-c2ccc(O)cc2)n(Cc2ccc(OCC[N+](C)(C)C)cc2)c2ccc(O)cc12 [Example No. 106, 2-(4-Hydroxy-phenyl)-3-methyl-1-[4-(2-dimethyl-1-yl-ethoxy)-benzyl]-1H-indol-5-ol methiodide]"

# Same assay, conditions: read-out: Receptor Binding IC50's
row,SMILES,IC50 [nM]
1,"COc1ccc(-c2c(C)c3cc(O)ccc3n2Cc2ccc(OCCN3CCCCC3)cc2)cc1 [Example No. 89, 2-(4-methoxy-phenyl)-3-methyl-1-{4-[2-(piperidin-1-yl)-ethoxy]-benzyl}-1H-indol-5-ol]",300
2,"CCOc1ccc(-c2c(C)c3cc(O)ccc3n2Cc2ccc(OCCN3CCCCCC3)cc2)cc1 [Example No. 93, 1-[4-(2-Azepan-1-yl-ethoxy)-benzyl]-2-(4-ethoxy-phenyl)-3-methyl-1H-indol-5-ol]",90
3,"Cc1c(-c2ccc(F)cc2)n(Cc2ccc(OCCN3CCCCC3)cc2)c2ccc(O)cc12 [Example No. 116, 2-(4-Fluoro-phenyl)-3-methyl-1-[4-(2-piperidine-1-yl-ethoxy)-benzyl]-1H-indol-5-ol]",40
4,"Cc1c(-c2ccc(O)cc2)n(Cc2ccc(OCCN3CCC(C)CC3)cc2)c2ccc(O)cc12 [Example No. 110, 2-(4-Hydroxy-phenyl)-3-methyl-1-{4-[2-(4-methyl-piperidin-1-yl)-ethoxy]-benzyl}-1H-indol-5-ol]",37
5,"COc1ccc(-c2c(C)c3cc(OC)ccc3n2Cc2ccc(OCCN3CCCCC3)cc2)cc1 [Example No. 90, 5-Methoxy-2-(4-methoxy-phenyl)-3-methyl-1-{4-(2-piperidin-1-yl-ethoxy)-benzyl]-1H-indole]",600
6,"CCOc1ccc(-c2c(C)c3cc(O)ccc3n2Cc2ccc(OCCN3CCCCC3)cc2)cc1 [Example No. 92, 2-(4-Ethoxv-phenyl)-3-methyl-1-[4-(2-piperidin-1-yl-ethoxy)-benzyl]-1H-indol-5-ol]",62
7,"Cc1c(-c2ccc(O)cc2)n(Cc2ccc(OCCN3C[C@@H]4CC[C@H]3C4)cc2)c2ccc(O)cc12 [Example No. 114, (1S,4R)-1-{4-[2-(2-Aza-bicyclo [2.2.1]hept-2-yl)-ethoxy]-benzyl}-2-(4-hydroxy-phenyl)-3-methyl-1H-indol-5-ol]",1
8,"CCCCN(CCCC)CCOc1ccc(Cn2c(-c3ccc(O)cc3)c(C)c3cc(O)ccc32)cc1 [Example No. 103, 1-[4-(2-Dibutylamino-ethoxy)-benzyl]-2-(4-hydroxy-phenyl)-3-methyl-1H-indol-5-ol]",200
9,"Cc1c(-c2ccc(F)cc2)n(Cc2ccc(OCCN3CCCCCC3)cc2)c2ccc(O)cc12 [Example No. 117, 1-[4-(2-Azepan-1-yl-ethoxy)-benzyl]-2-(4-fluoro-phenyl)-3-methyl-1H-indol-5-ol]",100
10,"Cc1c(-c2ccccc2)n(Cc2ccc(OCCN3CCCCC3)cc2)c2ccccc12 [Example No. 85, 4-{3-Methyl-1-[4-(2-piperidin-1-yl-ethoxy)-benzyl]-1H-indole}]",450
11,"COc1ccc2c(c1)c(C)c(-c1ccc(O)cc1)n2Cc1ccc(OCCN2CCCCC2)cc1 [Example No. 88, 4-{5-Methoxy-3-methyl-1-{4-[2-(piperidin-1-yl)-ethoxy]-benzyl}-1H-indol-2-yl}-phenol]",350
12,"Cc1c(-c2ccc(O)cc2)n(Cc2ccc(OCCN3CCC(O)CC3)cc2)c2ccc(O)cc12 [Example No. 113, 2-(4-Hydroxy-phenyl)-1-{4-[2-(4-hydroxy-piperidin-1-yl)-ethoxy]-benzyl}-3-methyl-1H-indol-5-ol]",47
13,"Cc1c(-c2ccc(O)cc2)n(Cc2ccc(OCCN3CCCC(C)(C)C3)cc2)c2ccc(O)cc12 [Example No. 111, 1-{4-[2-(3,3-Dimethyl-piperidin-1-yl)-ethoxy]-benzyl}-2-(4-hydroxy-phenyl)-3-methyl-1H-indol-5-ol]",150
14,"Cc1c(-c2ccc(O)cc2)n(Cc2ccc(OCCN3CCCCC3)cc2)c2ccccc12 [Example No. 86, 4-{3-Methyl-1-[4-(2-piperidin-1-yl-ethoxy)-benzyl]-1H-indol-2-yl}-phenol hydrochloride]",120
15,"Cc1c(-c2ccccc2)n(Cc2ccc(OCCN3CCCCC3)cc2)c2ccc(O)cc12 [Example No. 87, 3-Methyl-2-phenyl-1-[4-(2-piperidine-1-yl-ethoxy)-benzyl]-1H-indol-5-ol]",30
16,"Cc1c(-c2ccc(O)cc2)n(Cc2ccc(OCCN3CCCCC3C)cc2)c2ccc(O)cc12 (centres unmarked) [Example No. 108, 2-(4-Hydroxy-phenyl)-3-methyl-1-{4-[2-(2-methyl-piperidin-1-yl)-ethoxy]-benzyl}-1H-indol-5-ol]",20
17,"Cc1c(-c2ccc3c(c2)OCO3)n(Cc2ccc(OCCN3CCCCC3)cc2)c2ccc(O)cc12 [Example No. 119, 2-Benzo[1,3]dioxol-5-yl-3-methyl-1-[4-(2-piperidin-1-yl-ethoxy)-benzyl]-1H-indol-5-ol]",70
18,"Cc1c(-c2ccc(O)cc2)n(Cc2ccc(OCCN3CCCCC3)cc2)c2ccc(F)cc12 [Example No. 94, 4-{5-Fluoro-3-methvl-1-[4-(2-piperidin-1-yl-ethoxy)-benzyl]-1H-indol-2-yl}-phenol]",200
19,"Cc1c(-c2ccc(O)cc2)n(Cc2ccc(OCCN3CC4(C)CC3CC(C)(C)C4)cc2)c2ccc(O)cc12 (centres unmarked) [Example No. 115, 2-(4-Hydroxy-phenyl)-3-methyl-1-{4-[2-(1,3,3-trimethyl-6-aza-bicyclo[3.2.1]oct-6-yl)-ethoxy]-benzyl}-1H-indol-5-ol]",150
20,"CCCN(CCC)CCOc1ccc(Cn2c(-c3ccc(O)cc3)c(C)c3cc(O)ccc32)cc1 [Example No. 102, 1-[4-(2-Dipropylamino-ethoxy)-benzyl]-2-(4-hydroxy-phenyl)-3-methyl-1H-indol-5-ol]",80

# Tested on: Ishikawa cells
# Assay: Ishikawa Cell Alkaline Phosphatase Assay
# Format: cell-based, human
# Settings: Homo sapiens, Ishikawa; estrogenic activity by the alkaline phosphatase method; reference standards; read-out: ED50 values (95% C.I.)
# Method: Cells were treated for 48 h prior to assay. […] Sample population for at each dose was n=8. […] Plates are placed at -80°C for a minimum of 15 minutes. Plates are thawed at 37°C followed by the addition of 150μL of 0.1 M Tris-HCl, pH 9.8, containing 4 mM para-nitrophenylphosphate (pNPP) to each well (final concentration. 3 mM pNPP). Absorbance and slope calculations were made using the […] Application program (Bio-Tek Instruments, Inc., Winooski, VT). […] Various compounds were assayed for estrogenic activity by the alkaline phosphatase method and corresponding ED50 values (95% C.I.) were calculated. The four listed in the following were used as as reference standards: A description of these methods is described by Holinka, […]., Kuramoto, H. and Gurpide, E. (1986) Effects of steroid hormones and antisteroids on alkaline phosphatase activity in human endometrial cancer cells (Ishikawa Line). Cancer Research, 46:2771-2774, and by […]. and […] simple and sensitive microtiter plate estrogen bioassay based on stimulation alkaline phosphatase in Ishikawa cells; […] Endocrinology, 6:2757-2762.
row,EC50 [nM],SMILES
1,0.13,C[C@]12CC[C@@H]3c4ccc(O)cc4CC[C@H]3[C@@H]1C[C@@H](O)[C@@H]2O [estriol]
2,0.36,C[C@]12CC[C@@H]3c4ccc(O)cc4CC[C@H]3[C@@H]1CCC2=O [estrone]

# Same assay, conditions: estrogenic activity by the alkaline phosphatase method; reference standards; read-out: ED50 values (95% C.I.)
row,EC50 [nM],SMILES
1,1.42,C[C@]12CC[C@@H]3c4ccc(O)cc4CC[C@H]3[C@@H]1CC[C@H]2O [17α-estradiol]
